US20240426807A1, “SCREENING SYSTEM” (Givaudan SA, priority 2021, published 2024)
Entries after “also recorded” stand apart in the source; their conditions may differ.

Target: T1, OR5AN1 (Homo sapiens, UniProt Q8NGI8)
T1 construct: expressed in transfected cells
T1 sequence (Q8NGI8 1-311): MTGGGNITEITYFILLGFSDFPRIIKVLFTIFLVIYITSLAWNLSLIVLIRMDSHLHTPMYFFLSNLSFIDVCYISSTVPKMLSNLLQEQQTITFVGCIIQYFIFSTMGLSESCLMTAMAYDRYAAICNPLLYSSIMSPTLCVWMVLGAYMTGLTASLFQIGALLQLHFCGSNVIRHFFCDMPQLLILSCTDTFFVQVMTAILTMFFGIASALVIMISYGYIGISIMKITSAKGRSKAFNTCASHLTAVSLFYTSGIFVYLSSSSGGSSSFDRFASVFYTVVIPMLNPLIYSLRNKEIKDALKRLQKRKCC
Experiment: Ligand-induced blasticidin resistance, OR5AN1 cells (pGL4.29-CRE-BLAST-OR)
Format: cell-based
Source text: To generate a vector allowing positive selection of cell clones with a functional expression of a specific OR gene, a blasticidin resistance gene was placed downstream of SEQ ID NO: 4. The pGL4.29-CRE-Puro-OR vector generated as described in Example 1 was digested with BgIII and FseI to remove the comprised basal promoter and the complete puromycin resistance gene. The removed basal promoter sequence was amplified with the primers […] (SEQ ID NO: 28), […] (SEQ ID NO: 63), and the blasticidin S deaminase (bsd, SEQ ID NO: 64) encoding sequence was amplified by PCR using the primers […] (SEQ ID NO: 66) […] (SEQ ID NO: 67). The two overlapping PCR products were joined by fusion PCR using primers […] (SEQ ID NO: 28) and […] (SEQ ID NO: 68). The resulting DNA fragment was digested with BgIII/FseI and ligated into the digested vector to generate pGL4.29-CRE-Blast-OR.
This vector was used to generate stable cell lines as described in Example 1.
Stable clones containing a stable insertion of the pGL4.29-CRE-BLAST-OR construct with the receptor OR5AN1 (NCBI Genbank Gene ID: 390195) were then plated at a density of 3000 cells/per well in 100 μl Dubelcco's Modified Eagle medium (DMEM) in polyethyleneimide-coated, white 96 well microtiter plates with a transparent bottom. After cells were allowed to adhere for 24 h, 50 μl of medium containing different odorants (musk ketone or ethyl vanillin at 40 μM) was added to each well resulting in an odorant concentration of 13.3 μM. 6 h after odorant addition, 50 μl of medium containing blasticidin was added to reach a final concentration of 0.5-256 μg/ml in 10 two-fold dilution steps (day 1 of selection). This step further diluted the odorant to 10 μM. On day 4 of the selection (72 h after blasticidin addition), medium from each well was removed completely, 100 μl PrestoBlue® cell viability reagent (ThermoFisher Scientific, Catalog No: 14200-083) diluted in phosphate buffered saline containing 1 mg/ml glucose was added to each well and cells were incubated at 37° C. until a color change was visible in the wells containing no blasticidin. The fluorescence was determined at 560 excitation and 590 nm emission to assess relative cell metabolic activity, which is the net result of cell growth and cell killing in presence of the different blasticidin concentrations. The result was expressed as % viability relative to controls with no cells (0%) and cells treated with olfactory ligand only (100%).

CC(=O)c1c(C)c([N+](=O)[O-])c(C(C)(C)C)c([N+](=O)[O-])c1C [musk ketone] was tested, and the “blasticidin resistance in presence of odorant versus solvent control” value (HEK293T OR5AN1, odorant 10 μM, blasticidin 0.5-256 μg/ml, PrestoBlue viability day 4) was “increased resistance to blasticidin; also recorded: Enhanced blasticidin resistance”, the “difference in viability with versus without ligand” value (blasticidin at 32 μM (so in the source)) was about 10 fold and the “surviving cells (viability) in presence of ligand” value (blasticidin at 32 μM (so in the source), odorant 10 μM, relative to no cells (0%) and ligand only (100%)) was 75%. For the same compound, the “increase of blasticidin concentration reducing viability by 50% (EC50) in presence of ligand” value (versus absence of ligand) was over 50 fold.
